Results published in patent US6060597A, “Cyclic oligosaccharide, and an agent containing the same for preventing or treating retroviral diseases” (Kikkoman Corporation, priority 1997, dated 2000).

Experiments:
[1] = molecular target: binding of gp120 to CD4 receptor (HIV-1 M:B_HXB2R, UniProt P04578); experiment: inhibition of the binding of gp120 to CD4 receptor (drug discovery kit, duPont); details: concentration range of 0 to 100 mg/ml; FIG. 5
Experimental: Measurement of anti-HIV activity of sulfated CI-8
Sulfated CI-8 obtained above in Example 1 was examined for the activity of inhibiting the binding of gp120 to CD4 receptor in the concentration range of […] using a drug discovery kit (duPont).

[2] = tested on: fresh rat blood; experiment: anticoagulation activity in fresh rat blood, microtiter plate, visual evaluation of serum separation; type: biochemical; details: citrated fresh rat blood, CaCl2-initiated, 15 minutes at room temperature; for anticoagulation activity: judged against 20 U/mg standard
Experimental: Anticoagulation activity of sulfated cyclic oligosaccharide
Sulfated CI-8 was examined for its anticoagulation activity. 1% aqueous sulfated CI-8 solution obtained by dissolving 10 mg of sulfated CI-8 sodium in 1 ml de-ionized water was diluted at various concentrations with 0.85% sterilized NaCl solution (physiological saline) to prepare sulfated CI-8 solutions at various concentrations. Solutions of dextran 5000 sodium sulfate (Wako Pure Chemical Industries, Ltd.) at various concentrations were also prepared in the same manner. Standard solutions at various concentrations were prepared using dextran sodium sulfate having 20 U/mg anticoagulation activity (a gift from Meito Sangyo K. K.).
40 μl each of the aqueous solutions were put to each well on a 96-well microtiter plate. Then, 50 μof fresh rat blood containing 0.38% trisodium citrate was put to each well and mixed. Further, 10 μl of 2% aqueous CaCl2 solution and mixed whereby blood-coagulation reaction was initiated. The plate was left at room temperature for 15 minutes and centrifuged at 2000 rpm for 10 minutes, and the separation of the serum in each well was visually evaluated. As a result, the anticoagulation activity of sulfated CI-8 was judged to be about 1/2 relative to the known dextran sodium sulfate, so its activity was judged to be about […]. The activity of dextran 5000 sodium sulfate was judged to be about 40 U/mg.

[3] = tested on: fresh rat blood; details: stated activity of the standard substance (gift from Meito Sangyo K. K.); cited from earlier work

cyclic isomaltoctaose-heptadecyl-0-sulfate sodium salt [sulfated CI-8]
activity of inhibiting the binding of gp120 to CD4 receptor [1]: inhibited the binding of pg120 to CD4 in proportion to its concentration | anticoagulation activity [2]: about 10 U/ml | anticoagulation activity relative to the known dextran sodium sulfate ([2]; relative to 20 U/mg standard): about 1/2

dextran sodium sulfate
anticoagulation activity of the standard [3]: 20 U/mg

dextran 5000 sodium sulfate [reference compound]
anticoagulation activity [2]: about 40 U/mg
